# Legend:
# [1] = test system: morningglory; assay: Test A pre-/postemergence greenhouse test; format: in vivo, Ipomoea spp.; conditions: for Plant response rating, Morningglory: 0 to 100 scale where 0 is no effect and 100 is complete control; for Morningglory plant response rating: 0 to 100 scale
# Summary of the method: (§1)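 Pre: directed soil spray on seeded loam/sand. Post: foliar spray, plants 2–10 cm, 1–2 leaf stage, applied concurrently. Vehicle: non-phytotoxic solvent + surfactant. Greenhouse ~10 d; visual injury rating vs untreated controls.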
# [2] = test system: redroot pigweed; assay: Test A pre-/postemergence greenhouse test; format: in vivo, Amaranthus retroflexus; conditions: for Plant response rating, Pigweed: 0 to 100 scale where 0 is no effect and 100 is complete control; for Pigweed plant response rating: 0 to 100 scale
# Summary of the method: as §1
# [3] = test system: corn; assay: Test A pre-/postemergence greenhouse test; format: in vivo, Zea mays; conditions: for Plant response rating, Corn: 0 to 100 scale where 0 is no effect and 100 is complete control; for Corn plant response rating: 0 to 100 scale
# Summary of the method: as §1
# [4] = test system: Italian ryegrass; assay: Test C pre-/postemergence test; format: in vivo, Lolium multiflorum; conditions: for Ryegrass, Italian plant response rating: preemergence, scale 0 (no effect) to 100 (complete control)
# Summary of the method: (§2)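 Seeds were planted and treated preemergence with test chemical in a non-phytotoxic solvent mixture containing surfactant. Postemergence applications of the same formulation went onto plants 2 to 18 cm tall (1- to 4-leaf stage). A dash marks no test result.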
# [5] = test system: wheat; assay: Test C pre-/postemergence test; format: in vivo, Triticum aestivum
# Summary of the method: as §2
# [6] = test system: wild oat; assay: Test C pre-/postemergence test; format: in vivo, Avena fatua
# Summary of the method: as §2
# [7] = test system: bermudagrass; assay: Test C pre-/postemergence test; format: in vivo, Cynodon dactylon
# Summary of the method: as §2
# [8] = test system: cocklebur; assay: Test C pre-/postemergence test; format: in vivo, Xanthium strumarium
# Summary of the method: as §2
# [9] = test system: corn; assay: Test C pre-/postemergence test; format: in vivo, Zea mays
# Summary of the method: as §2
# [10] = test system: giant foxtail; assay: Test C pre-/postemergence test; format: in vivo, Setaria faberii
# Summary of the method: as §2
# [11] = test system: johnsongrass; assay: Test C pre-/postemergence test; format: in vivo, Sorghum halepense
# Summary of the method: as §2
# [12] = test system: kochia; assay: Test C pre-/postemergence test; format: in vivo, Kochia scoparia
# Summary of the method: as §2
# [13] = test system: morningglory; assay: Test C pre-/postemergence test; format: in vivo, Ipomoea coccinea
# Summary of the method: as §2
# [14] = test system: eastern black nightshade; assay: Test C pre-/postemergence test; format: in vivo, Solanum ptycanthum
# Summary of the method: as §2
# [15] = test system: yellow nutsedge; assay: Test C pre-/postemergence test; format: in vivo, Cyperus esculentus
# Summary of the method: as §2
# [16] = test system: common (oilseed) sunflower; assay: Test C pre-/postemergence test; format: in vivo, Helianthus annuus
# Summary of the method: as §2
# [17] = test system: rice; assay: Test C flooded paddy test; format: in vivo, Oryza sativa; conditions: Flood
# Summary of the method: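 Under a constant 3 cm flood, test compounds went directly into the paddy water. Following 13 to 15 days of greenhouse growth, treated species and controls were compared by eye.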
# [18] = Postemergence, 500 g ai/ha, 0 is no effect, 100 is complete control
# [19] = Preemergence, 125 g ai/ha, 0 no effect, 100 complete control
# [20] = Postemergence, 125 g ai/ha, scale 0 to 100, 0 no effect, 100 complete control
# [21] = Postemergence, 250 g ai/ha, scale 0 to 100, 0 no effect, 100 complete control
# [22] = Preemergence, 31 g ai/ha, scale 0 to 100 (0 no effect, 100 complete control)
# [23] = 62 g ai/ha, Preemergence, scale 0 to 100
# [24] = 125 g ai/ha, preemergence, scale 0 (no effect) to 100 (complete control)
# [25] = preemergence, 250 g ai/ha, scale 0 (no effect) to 100 (complete control)
smiles,measurement,setting,value
CC(Oc1c(CS(=O)(=O)c2cccc[n+]2[O-])c(C(F)(F)F)nn1C)C(F)(F)F (stereo not shown) [Compound 82],"Plant response rating, Morningglory","[1]; Postemergence, 125 g ai/ha",40
same,Morningglory plant response rating,[1]; [18],50
same,Morningglory plant response rating,[1]; [19],60
same,"Plant response rating, Morningglory","[1]; Preemergence, 500 g ai/ha",100
same,"Plant response rating, Pigweed","[2]; Postemergence, 125 g ai/ha",30
same,Pigweed plant response rating,[2]; [18],70
same,Pigweed plant response rating,[2]; [19],40
same,"Plant response rating, Pigweed","[2]; Preemergence, 500 g ai/ha",100
same,"Plant response rating, Corn","[3]; Postemergence, 125 g ai/ha",0
same,Corn plant response rating,[3]; [18],20
same,Corn plant response rating,[3]; [19],0
same,"Plant response rating, Corn","[3]; Preemergence, 500 g ai/ha",50
same,"Ryegrass, Italian plant response rating",[4]; 125 g ai/ha,80
same,"Plant response rating (0 to 100), Ryegrass, Italian","[4]; Postemergence, 31 g ai/ha",0
same,"Plant response rating (0 to 100), Ryegrass, Italian","[4]; Postemergence, 62 g ai/ha",0
same,"Plant response rating, Ryegrass, Italian",[4]; [20],85
same,"Plant response rating, Ryegrass, Italian",[4]; [21],90
same,"Plant response rating, Ryegrass, Italian",[4]; [22],75
same,"Ryegrass, Italian plant response rating",[4]; 250 g ai/ha,100
same,Wheat plant response rating,[5]; [23],20
same,Wheat plant response rating,[5]; [24],30
same,"Plant response rating (0 to 100), Wheat","[5]; Postemergence, 31 g ai/ha",0
same,"Plant response rating (0 to 100), Wheat","[5]; Postemergence, 62 g ai/ha",20
same,"Plant response rating, Wheat",[5]; [20],25
same,"Plant response rating, Wheat",[5]; [21],35
same,"Plant response rating, Wheat",[5]; [22],10
same,Wheat plant response rating,[5]; [25],60
same,"Oat, Wild plant response rating",[6]; [23],60
same,"Oat, Wild plant response rating",[6]; [24],80
same,"Plant response rating (0 to 100), Oat, Wild","[6]; Postemergence, 31 g ai/ha",0
same,"Plant response rating (0 to 100), Oat, Wild","[6]; Postemergence, 62 g ai/ha",0
same,"Plant response rating, Oat, Wild",[6]; [20],0
same,"Plant response rating, Oat, Wild",[6]; [21],40
same,"Plant response rating, Oat, Wild",[6]; [22],35
same,"Oat, Wild plant response rating",[6]; [25],80
same,Bermudagrass plant response rating,"[7]; 62 g ai/ha, Preemergence, scale 0 to 100 (0 no effect, 100 complete control)",100
same,Bermudagrass plant response rating,[7]; [24],100
same,"Plant response rating (0 to 100), Bermudagrass","[7]; Postemergence, 31 g ai/ha",0
same,"Plant response rating (0 to 100), Bermudagrass","[7]; Postemergence, 62 g ai/ha",0
same,"Plant response rating, Bermudagrass",[7]; [20],0
same,"Plant response rating, Bermudagrass",[7]; [21],0
same,"Plant response rating, Bermudagrass",[7]; [22],100
same,Bermudagrass plant response rating,[7]; [25],100
same,Cocklebur plant response rating,[8]; [23],0
same,Cocklebur plant response rating,[8]; [24],0
same,"Plant response rating (0 to 100), Cocklebur","[8]; Postemergence, 31 g ai/ha",0
same,"Plant response rating (0 to 100), Cocklebur","[8]; Postemergence, 62 g ai/ha",0
same,"Plant response rating, Cocklebur",[8]; [20],0
same,"Plant response rating, Cocklebur",[8]; [21],0
same,"Plant response rating, Cocklebur",[8]; [22],0
same,Cocklebur plant response rating,[8]; [25],0
same,Corn plant response rating,[9]; [23],40
same,Corn plant response rating,[9]; [24],70
same,"Plant response rating (0 to 100), Corn","[9]; Postemergence, 31 g ai/ha",0
same,"Plant response rating (0 to 100), Corn","[9]; Postemergence, 62 g ai/ha",0
same,"Plant response rating, Corn",[9]; [20],0
same,"Plant response rating, Corn",[9]; [21],0
same,"Plant response rating, Corn",[9]; [22],40
same,Corn plant response rating,[9]; [25],80
same,"Foxtail, Giant plant response rating",[10]; [23],85
same,"Foxtail, Giant plant response rating",[10]; [24],100
same,"Plant response rating (0 to 100), Foxtail, Giant","[10]; Postemergence, 31 g ai/ha",0
same,"Plant response rating (0 to 100), Foxtail, Giant","[10]; Postemergence, 62 g ai/ha",0
same,"Plant response rating, Foxtail, Giant",[10]; [20],40
same,"Plant response rating, Foxtail, Giant",[10]; [21],40
same,"Plant response rating, Foxtail, Giant",[10]; [22],70
same,"Foxtail, Giant plant response rating",[10]; [25],100
same,Johnsongrass plant response rating,[11]; [23],80
same,Johnsongrass plant response rating,[11]; [24],80
same,"Plant response rating (0 to 100), Johnsongrass","[11]; Postemergence, 31 g ai/ha",0
same,"Plant response rating (0 to 100), Johnsongrass","[11]; Postemergence, 62 g ai/ha",0
same,"Plant response rating, Johnsongrass",[11]; [20],10
same,"Plant response rating, Johnsongrass",[11]; [21],40
same,"Plant response rating, Johnsongrass",[11]; [22],40
same,Johnsongrass plant response rating,[11]; [25],100
same,Kochia plant response rating,[12]; [23],100
same,Kochia plant response rating,[12]; [24],100
same,"Plant response rating (0 to 100), Kochia","[12]; Postemergence, 31 g ai/ha",0
same,"Plant response rating (0 to 100), Kochia","[12]; Postemergence, 62 g ai/ha",0
same,"Plant response rating, Kochia",[12]; [20],0
same,"Plant response rating, Kochia",[12]; [21],0
same,"Plant response rating, Kochia",[12]; [22],100
same,Kochia plant response rating,[12]; [25],100
same,Morningglory plant response rating,[13]; [23],70
same,Morningglory plant response rating,[13]; [24],98
same,"Plant response rating (0 to 100), Morningglory","[13]; Postemergence, 31 g ai/ha",0
same,"Plant response rating (0 to 100), Morningglory","[13]; Postemergence, 62 g ai/ha",0
same,"Plant response rating, Morningglory",[13]; [20],0
same,"Plant response rating, Morningglory",[13]; [21],0
same,"Plant response rating, Morningglory",[13]; [22],0
same,Morningglory plant response rating,[13]; [25],100
same,Nightshade plant response rating,[14]; [23],40
same,Nightshade plant response rating,[14]; [24],80
same,"Plant response rating, Nightshade",[14]; [22],0
same,Nightshade plant response rating,[14]; [25],100
same,"Nutsedge, Yellow plant response rating",[15]; [23],60
same,"Nutsedge, Yellow plant response rating",[15]; [24],75
same,"Plant response rating (0 to 100), Nutsedge, Yellow","[15]; Postemergence, 31 g ai/ha",0
same,"Plant response rating (0 to 100), Nutsedge, Yellow","[15]; Postemergence, 62 g ai/ha",0
same,"Plant response rating, Nutsedge, Yellow",[15]; [20],0
same,"Plant response rating, Nutsedge, Yellow",[15]; [21],0
same,"Plant response rating, Nutsedge, Yellow",[15]; [22],40
same,"Nutsedge, Yellow plant response rating",[15]; [25],100
same,Sunflower plant response rating,[16]; [23],0
same,Sunflower plant response rating,[16]; [24],45
same,"Plant response rating, Sunflower",[16]; [22],0
same,Sunflower plant response rating,[16]; [25],50
same,"Plant response rating, Rice","[17]; 62 g ai/ha, scale 0 to 100 (0 no effect, 100 complete control)",0
same,"Plant response rating, Rice","[17]; 250 g ai/ha, scale 0 to 100, 0 no effect, 100 complete control, 13 to 15 days",60
